Reference: US9493507B2, “Glutathione-elevating compositions and uses thereof” (Oneday— Biotech And Pharma Ltd., priority 2012, dated 2016)
Entries after “also recorded” stand apart in the source; their conditions may differ.

System: murine erythrocytes
Assay: Effect of DY-65 on GSH, GSSG and GSH:GSSG ratio in murine erythrocytes exposed to hydrogen peroxide
Format: cell-based, mice
Settings: DY-65 5 μM
Protocol: The in vitro efficacy of peptide DY-65 in suppressing the decrease in the ratio of GSH to GSSG in murine erythrocytes exposed to hydrogen peroxide was tested.
Murine erythrocytes (“Cells”) were prepared by washing freshly harvested whole blood from mice three times in PBS. Cells were resuspended in DMEM at a concentration of 10^6 per mL. All study conditions were evaluated in triplicate.
Hydrogen peroxide (200 μM) was utilized to induce redox stress in murine erythrocytes (“Cells”). Prior to exposure to hydrogen peroxide, cells were randomly allocated to the following experimental groups:
1. Sham (no exposure to hydrogen peroxide; no drug) • a. 2.5 h final incubation
2. Vehicle control (hydrogen peroxide; no drug) • a. 1.0 h final incubation • b. 1.5 h final incubation • c. 2.0 h final incubation • d. 2.5 h final incubation
3. DY-65 (5 μM)+hydrogen peroxide • a. 1.0 h final incubation • b. 1.5 h final incubation • c. 2.0 h final incubation • d. 2.5 h final incubation
Cells at a concentration of 10^6 per mL were incubated with vehicle DMEM (Groups 1 or 2) or peptide DY-65 (Group 3) for 3 hours at 37° C. Thereafter, cells were washed three times with DMEM and resuspended in vehicle DMEM (Group 1) or hydrogen peroxide in DMEM (Groups 2-3) for 1 hour at 37° C.
Thereafter, cells were washed three times with DMEM and resuspended in DMEM at 37° C., 10^6 per mL, with peptide DY-65 (Group 3) or without peptide DY-65 (Groups 1-2). The duration of final incubation was 1.0, 1.5, 2.0, or 2.5 h. Cells were then pelleted, lysed, and processed for measurement of GSH and GSSG using a Glutathione Assay kit sold by Cayman (Chemical Item Number 703002). Data were expressed as micromoles of GSH or GSSG per 1 million erythrocytes.
Given 9 conditions, 3 replicates per condition, and 2 endpoints (GSH and GSSG), a total of 54 wells were incubated.
Data analysis. All values in the figure and text below were expressed as mean±standard deviation (SD) and standard error (SE) of n observations. The results were analyzed by one-way ANOVA followed by Tukey's post-hoc test for multiple comparisons. […]

## N-acetyl-Cys-Lys-Met-Cys-NH2 (Ac-CKMC-NH2; cysteine pairing not given here) [DY-65]
Hydrogen peroxide 200 μM 1 h, 1 h final incubation, FIG. 2C
  effect on GSH concentration after hydrogen peroxide: completely protective; also recorded: increase GSH
Hydrogen peroxide 200 μM 1 h, final incubation 1.0-2.5 h, FIG. 2D
  effect on GSSG elevation in response to hydrogen peroxide: uniformly effective in suppressing the elevation of GSSG; also recorded: decrease GSSG
Hydrogen peroxide 200 μM, earliest time point, 1 h post exposure, FIG. 2E
  ratio of GSH to GSSG: clear benefit
